Test results as given in paper PMC8507260, “A2E-induced inflammation and angiogenesis in RPE cells in vitro are modulated by PPAR-α, -β/δ, -γ, and RXR antagonists and by norbixin” (Aging (Albany NY), 2021).

What was measured:
NF-κB = NF-κB transactivation, luciferase reporter in porcine RPE cells; assay type: cell-based; details: A2E 20 μM, T007907 10 μM
Protocol: (§1) Pig eyes were obtained from a local slaughterhouse and transported to the laboratory in ice-cold Ringer solution. After removal of the anterior segment of the eye, the vitreous and neural retina was separated from the RPE and removed. The eyecup was washed twice with phosphate buffer saline (PBS), filled with trypsin (0.25% in PBS) and incubated at 37°C for 1.5 h. RPE cells were harvested by gently pipetting, centrifuged to remove trypsin and re-suspended in Dulbecco’s Modified Eagle Medium (DMEM) supplemented with 20% (v/v) foetal-calf serum (DMEM20%FCS) and 0.1% gentamycin. Cells were seeded into 60 mm diameter Petri dishes, cultured in an atmosphere of 5% CO2/95% air at 37°C, and supplied with fresh medium after 24 hours and 4 days in vitro. For experiments aimed at measuring mRNA or protein expression in RPE, cells were trypsinized after one week in culture and transferred to 24-well or 6-well plates at a density of 1.5 × 10^5 cells/cm^2 in DMEM2%FCS. Norbixin or agonists were added to the medium 24 h after seeding, and antagonists were added to the medium 24 h later. A2E treatment was performed during 19 h before cellular sample preparation. All the drugs used in these experiments were prepared as stock solutions in DMSO.
(§2) After one week in culture, cells were trypsinized and transferred to a 96-well plate at a density of 6 × 10^4 cells/cm^2 in DMEM2%FCS. The next day, cells were transfected using the Cignal Reporter Assay Kits for PPAR, RXR, AP-1 and NF-κB, according to the manufacturer’s specifications. To measure the specific activation of PPAR isoforms, cells were also co-transfected with PPAR-α, PPAR-β/δ or PPAR-γ expression vectors. Transfection was performed with Lipofectamine and Plus Reagent in serum-free medium. 3 h after the transfection, the medium was replaced and treatments with the molecules to assay were performed. Luciferase activity was measured the next day using the Dual-Luciferase Reporter Assay System. The measurements were performed with a luminometer (Infinite M1000 from Tecan, Mannedorf, Switzerland). Firefly: Renilla activity ratios were calculated for each condition and ratios from transcription factor-responsive reporter transfections were divided by ratios from negative control transfections to obtain relative luciferase unit, as described by the manufacturer. At least 3 independent transfections were performed in triplicate for each condition.

MMP9 = MMP9 mRNA expression by quantitative RT-PCR in porcine RPE cells; assay type: cell-based
Protocol: as §1, with “All the drugs used in these experiments were prepared as stock solutions in DMSO.” left out
Total RNA was extracted using the NucleoSpin® RNA kit according to manufacturer’s instructions. […] The relative mRNA expression was calculated using the comparative threshold method (Ct-method) with GAPDH for normalization. […]

PPAR-γ = molecular target: T1, PPAR-γ (Homo sapiens, UniProt P37231); assay: Transactivation of over-expressed PPAR-γ, luciferase reporter in porcine RPE cells; assay type: cell-based, pig; set-up: a plasmid expressing each of the full-length PPAR isoforms; host or cells: primary porcine RPE cells; details: for inhibition of PPAR-γ transactivation induced by TGZ: NBX 20 μM; for transactivation of over-expressed PPAR-γ by the compound alone: vs DMSO control, A2E 20 μM, NBX increasing concentrations
T1 sequence (P37231 1-505): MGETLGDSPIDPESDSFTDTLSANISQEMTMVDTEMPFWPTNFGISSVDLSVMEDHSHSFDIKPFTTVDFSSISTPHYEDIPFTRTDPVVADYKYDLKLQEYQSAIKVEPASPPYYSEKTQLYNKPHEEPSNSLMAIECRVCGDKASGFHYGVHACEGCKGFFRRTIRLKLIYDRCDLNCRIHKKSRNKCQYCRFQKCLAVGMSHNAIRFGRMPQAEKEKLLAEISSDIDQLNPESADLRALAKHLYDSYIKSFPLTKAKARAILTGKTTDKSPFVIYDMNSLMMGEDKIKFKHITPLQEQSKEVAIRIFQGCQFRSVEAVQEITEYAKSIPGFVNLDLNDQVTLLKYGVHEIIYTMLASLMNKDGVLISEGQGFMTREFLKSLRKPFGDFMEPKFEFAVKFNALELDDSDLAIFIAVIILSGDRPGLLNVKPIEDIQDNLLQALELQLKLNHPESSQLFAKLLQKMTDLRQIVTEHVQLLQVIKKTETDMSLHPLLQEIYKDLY
Protocol: Then the effects of A2E on the endogenous PPAR transactivation in porcine RPE cells were investigated by means of a luciferase assay. […] The level of transactivation of PPAR-α, -β/δ, or -γ isoforms by A2E was determined by co-transfection of porcine RPE cells with a plasmid expressing each of the full-length PPAR isoforms and a plasmid expressing luciferase under the control of the PPAR response element. […] All usual chemicals, primers, and HX531 were from Sigma (St. Louis, MO, USA). Reagents for cell culture, transfection and quantitative RT-PCR were from Thermo Fisher Scientific (Waltham, MA, USA). RNA extraction NucleoSpin® RNA kit was from Macherey Nagel (Düren, Germany). ECL prime and PVDF membrane were from Amersham GE Healthcare (Buckinghamshire, UK). Primary antibodies against the following proteins were used: GAPDH (Santa Cruz Biotechnology, Inc, Dallas, TX, USA); pAKT, AKT, pERK and ERK (Cell Signaling, Danvers, MA, USA). Secondary antibodies were from Jackson ImmunoResearch (Cambridgeshire, UK). […] Cignal Pathway Reporter Assay Kits were from QIAGEN (Frederick, MD, USA). The Dual-Luciferase Reporter Assay System was purchased from Promega (Madison, WI, USA). pcDNA 3.1 (+)-PPARα and pcDNA 3.1 (+)-PPARβ/δ (pig sequence) were purchased from Genscript (Piscataway, NJ, USA). pCMV6-XL4-PPARγ (human sequence) was purchased from Origene (Rockville, MD, USA).
as §2

## CC(/C=C/C=C(C)/C=C/C(=O)O)=C\C=C\C=C(C)\C=C\C=C(C)\C=C\C(=O)O (stereo in doubt) [norbixin, 9’-cis-norbixin]
NF-κB; NBX 20 μM, HX531 5 μM
  inhibition of NF-κB transactivation induced by A2E: 73%
MMP9; NBX 20 μM, A2E 30 μM
  effect on MMP9 mRNA expression in the absence or presence of A2E: slightly, but significantly, increased
PPAR-γ; 1 μM of TGZ
  inhibition of PPAR-γ transactivation induced by TGZ: partially inhibited
PPAR-γ; A2E 20 μM + NBX 20 μM
  effect on over-expressed PPAR-γ transactivation induced by A2E: fully abolished
PPAR-γ; TGZ 10 μM
  inhibition of PPAR-γ transactivation induced by TGZ: this effect was lost
PPAR-γ
  transactivation of over-expressed PPAR-γ by the compound alone: did not demonstrate any transactivation activity

## CC(C=CC1=C(C)CCCC1(C)C)=CC=CC(C)=Cc1cc(C=CC=C(C)C=CC2=C(C)CCCC2(C)C)cc[n+]1CCO [A2E, N-retinylidene-N-retinylethanolamine]
NF-κB; vs DMSO control
  effect of the compound alone on NF-κB transactivation: induces the transactivation
MMP9; A2E 30 μM vs DMSO control
  effect of the compound alone on MMP9 mRNA expression: reduced the expression
PPAR-γ
  transactivation of over-expressed PPAR-γ by the compound alone: induced the transactivation
